Data: PubChem BioAssay (NCI)
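Each compound was tested at five concentrations against cells in 96-well plates for 48 hours. GI50 marks 50% less growth. Definition used: TGI = concentration required for complete inhibition of growth.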

Experiments:
Experiment in all cases: inhibition of tumour cell growth, NCI panel, 48 h
MDA-MB-435 = system: MDA-MB-435
HCT-15 colon = system: HCT-15 colon
MOLT-4 leukemia = system: MOLT-4 leukemia
HT29 colon = system: HT29 colon
SW-620 colon = system: SW-620 colon
RPMI-8226 leukemia = system: RPMI-8226 leukemia
HS 578T breast = system: HS 578T breast
UACC-257 melanoma = system: UACC-257 melanoma
UO-31 renal = system: UO-31 renal
SN12C renal = system: SN12C renal
M14 melanoma = system: M14 melanoma
OVCAR-4 ovarian = system: OVCAR-4 ovarian
RXF 393 renal = system: RXF 393 renal
SF-268 CNS = system: SF-268 CNS
U251 CNS = system: U251 CNS
SK-MEL-28 melanoma = system: SK-MEL-28 melanoma
OVCAR-3 ovarian = system: OVCAR-3 ovarian
DU-145 prostate = system: DU-145 prostate
HCC-2998 colon = system: HCC-2998 colon
KM12 colon = system: KM12 colon
NCI/ADR-RES ovarian = system: NCI/ADR-RES ovarian
HOP-92 NSCLC = system: HOP-92 NSCLC
NCI-H522 lung = system: NCI-H522 lung
CCRF-CEM leukemia = system: CCRF-CEM leukemia
MDA-MB-231 breast = system: MDA-MB-231 breast
SNB-75 CNS = system: SNB-75 CNS
COLO 205 colon = system: COLO 205 colon
LOX IMVI melanoma = system: LOX IMVI melanoma
MALME-3M melanoma = system: MALME-3M melanoma

Structure (SMILES): Nc1nc(-c2ccc(Cl)cc2)cc(-c2ccccc2)c1-c1nc2ccccc2o1
- GI50 (MDA-MB-435): 9.45 µM
- TGI (MDA-MB-435): 26.9 µM
- GI50 (HCT-15 colon): 6.15 µM
- TGI (HCT-15 colon): 28.3 µM
- GI50 (MOLT-4 leukemia): 3.3 µM
- TGI (MOLT-4 leukemia): 11.4 µM
- GI50 (HT29 colon): 5.99 µM
- TGI (HT29 colon): 39.1 µM
- GI50 (SW-620 colon): 13.4 µM
- TGI (SW-620 colon): 31.1 µM
- GI50 (RPMI-8226 leukemia): 6.9 µM
- TGI (RPMI-8226 leukemia): 23 µM
- GI50 (HS 578T breast): 12.7 µM
- TGI (HS 578T breast): 40.9 µM
- GI50 (UACC-257 melanoma): 15.3 µM
- TGI (UACC-257 melanoma): 35.3 µM
- GI50 (UO-31 renal): 10.3 µM
- TGI (UO-31 renal): 26.4 µM
- GI50 (SN12C renal): 3.05 µM
- TGI (SN12C renal): 9.29 µM
- GI50 (M14 melanoma): 10.4 µM
- TGI (M14 melanoma): 26.2 µM
- GI50 (OVCAR-4 ovarian): 11.5 µM
- TGI (OVCAR-4 ovarian): 28 µM
- GI50 (RXF 393 renal): 3.69 µM
- TGI (RXF 393 renal): 16.9 µM
- GI50 (SF-268 CNS): 6.38 µM
- TGI (SF-268 CNS): 67.2 µM
- GI50 (U251 CNS): 4.49 µM
- TGI (U251 CNS): 18.7 µM
- GI50 (SK-MEL-28 melanoma): 15.2 µM
- TGI (SK-MEL-28 melanoma): 34 µM
- GI50 (OVCAR-3 ovarian): 7.29 µM
- TGI (OVCAR-3 ovarian): 27.3 µM
- GI50 (DU-145 prostate): 7.68 µM
- TGI (DU-145 prostate): 30.4 µM
- GI50 (HCC-2998 colon): 8.39 µM
- TGI (HCC-2998 colon): 34 µM
- GI50 (KM12 colon): 2.65 µM
- TGI (KM12 colon): 8.17 µM
- GI50 (NCI/ADR-RES ovarian): 5.46 µM
- TGI (NCI/ADR-RES ovarian): > 100 µM
- GI50 (HOP-92 NSCLC): 2.19 µM
- TGI (HOP-92 NSCLC): 6.18 µM
- GI50 (NCI-H522 lung): 9.5 µM
- TGI (NCI-H522 lung): 33.9 µM
- GI50 (CCRF-CEM leukemia): 4.2 µM
- TGI (CCRF-CEM leukemia): 33.6 µM
- GI50 (MDA-MB-231 breast): 5.02 µM
- TGI (MDA-MB-231 breast): 17.8 µM
- GI50 (SNB-75 CNS): 10.5 µM
- TGI (SNB-75 CNS): 24.5 µM
- GI50 (COLO 205 colon): 19.1 µM
- TGI (COLO 205 colon): 35.9 µM
- GI50 (LOX IMVI melanoma): 2.42 µM
- TGI (LOX IMVI melanoma): 5.77 µM
- GI50 (MALME-3M melanoma): 10.3 µM
- TGI (MALME-3M melanoma): 33.4 µM
